Assay results reported in publication PMC5244392, “Interspecies cathelicidin comparison reveals divergence in antimicrobial activity, TLR modulation, chemokine induction and regulation of phagocytosis” (Scientific Reports, 2017).

Tested on: RAW264.7 cells
Assay: Cytotoxicity (WST-1 mitochondrial activity, PI staining)
Format: cell-based, murine
Details: 24 h, peptide 0.08-20 μM; WST-1 and PI staining
Description: WST-1 reagent was obtained from Roche (Basel, Switzerland). RAW264.7 cells were incubated with cathelicidins for 24 h, after which the supernatant was removed and replaced with 10% WST-1 reagent in culture medium. After 20 minutes, absorbance was measured at 450 nm with a FLUOstar Omega microplate reader (BMG Labtech GmbH, Ortenberg, Germany) and was corrected for absorbance at 630 nm. Non-treated control cells were defined as 100% mitochondrial activity.
In addition, cells were detached after peptide exposure and stained with propidium iodide (PI) (BD bioscience, San Jose, CA, USA). Percentages of PI positive (i.e. dead) cells were determined with flow cytometry (BD FACSCanto II flow cytometer (BD Biosciences)) and analyzed with FlowJo software (Ashland, OR, USA). […]
Supplementary Figure 3: Cytotoxicity of cathelicidins on RAW264.7 cells
(A) RAW264.7 cells were incubated for 24 hours with diﬀerent cathelicidins (0.08 µM, 0.31 µM, 1.25 µM, 5 µM, and 20 µM), after which they were incubated with WST-1 reagent for 20 minutes to measure the mitochondrial activity. No peptide control was set to 100% mitochondrial activity. Dotted line represents 80% mitochondrial activity. Results are presented as average +/- SEM (N = 4).
(B) RAW264.7 cells were incubated with diﬀerent cathelicidins (0.31 µM, 1.25 µM, 5 µM, and 20 µM). Cells were stained for PI to detect dead cells. […]

Ac-GRFRRLRKKTRKRLKKIGKVLKWIPPIVGSIPLGCG [PMAP-36, porcine α-helical cathelicidin, N-acetylated, 36 residues, charge +13]
Cytotoxicity to RAW264.7 cells, in words: some cytotoxicity, but only at the highest concentration
